Experimental data reported in ChEMBL document CHEMBL3526031, “Mechanistic studies on the absorption and disposition of scutellarin in humans: selective OATP2B1-mediated hepatic uptake is a likely key determinant for its unique pharmacokinetic characteristics” (Drug Metab Dispos, 2012).

What was measured:
[1] = biological target: T1, OATP2B1 (Homo sapiens, UniProt O94956); assay: (§1) Drug uptake assessed as OATP2B1 (unknown origin)-mediated drug transport expressed in HEK293 cells after 7 mins by LC-MS/MS analysis; type: ADME, cell-based; conditions: human, HEK293 cells expressing OATP2B1
T1 sequence (O94956 whole entry): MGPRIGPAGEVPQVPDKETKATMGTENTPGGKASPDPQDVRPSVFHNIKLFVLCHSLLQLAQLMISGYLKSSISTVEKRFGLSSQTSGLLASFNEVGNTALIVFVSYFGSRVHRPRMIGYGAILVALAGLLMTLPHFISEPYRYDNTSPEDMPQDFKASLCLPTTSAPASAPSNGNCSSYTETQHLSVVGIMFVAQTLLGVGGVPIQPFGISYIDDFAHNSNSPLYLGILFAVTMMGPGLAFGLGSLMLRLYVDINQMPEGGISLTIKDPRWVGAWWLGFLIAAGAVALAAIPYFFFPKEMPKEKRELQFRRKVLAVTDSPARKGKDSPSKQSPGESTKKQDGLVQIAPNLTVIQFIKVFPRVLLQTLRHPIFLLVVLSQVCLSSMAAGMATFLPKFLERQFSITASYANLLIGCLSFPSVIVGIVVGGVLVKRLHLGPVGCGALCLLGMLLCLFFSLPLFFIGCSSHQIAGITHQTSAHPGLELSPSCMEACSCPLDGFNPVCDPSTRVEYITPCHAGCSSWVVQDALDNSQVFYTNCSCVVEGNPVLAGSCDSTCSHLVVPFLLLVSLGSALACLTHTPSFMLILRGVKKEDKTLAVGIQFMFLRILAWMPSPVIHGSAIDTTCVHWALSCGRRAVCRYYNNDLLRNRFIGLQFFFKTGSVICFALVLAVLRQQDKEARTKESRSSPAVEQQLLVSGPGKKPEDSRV

[2] = biological target: T2, Solute carrier organic anion transporter family member 2B1 (Homo sapiens, UniProt O94956); assay: as §1; type: ADME, cell-based
T2 sequence (O94956 whole entry): T1 sequence (O94956 whole entry)

[3] = Ratio of Vmax to Km for drug metabolism in human intestinal microsomes assessed as formation of scutellarein-6,7-diglucuronide after 7 mins by HPLC/UV analysis; type: ADME, Intestine, Microsome
[4] = biological target: T3, Broad substrate specificity ATP-binding cassette transporter ABCG2 (Homo sapiens, UniProt Q9UNQ0); assay: Drug uptake assessed as human BCRP-mediated drug transport using inside-out membrane vesicles by measuring +ATP/-ATP ratio by LC-MS/MS analysis; type: ADME
T3 sequence (Q9UNQ0 whole entry): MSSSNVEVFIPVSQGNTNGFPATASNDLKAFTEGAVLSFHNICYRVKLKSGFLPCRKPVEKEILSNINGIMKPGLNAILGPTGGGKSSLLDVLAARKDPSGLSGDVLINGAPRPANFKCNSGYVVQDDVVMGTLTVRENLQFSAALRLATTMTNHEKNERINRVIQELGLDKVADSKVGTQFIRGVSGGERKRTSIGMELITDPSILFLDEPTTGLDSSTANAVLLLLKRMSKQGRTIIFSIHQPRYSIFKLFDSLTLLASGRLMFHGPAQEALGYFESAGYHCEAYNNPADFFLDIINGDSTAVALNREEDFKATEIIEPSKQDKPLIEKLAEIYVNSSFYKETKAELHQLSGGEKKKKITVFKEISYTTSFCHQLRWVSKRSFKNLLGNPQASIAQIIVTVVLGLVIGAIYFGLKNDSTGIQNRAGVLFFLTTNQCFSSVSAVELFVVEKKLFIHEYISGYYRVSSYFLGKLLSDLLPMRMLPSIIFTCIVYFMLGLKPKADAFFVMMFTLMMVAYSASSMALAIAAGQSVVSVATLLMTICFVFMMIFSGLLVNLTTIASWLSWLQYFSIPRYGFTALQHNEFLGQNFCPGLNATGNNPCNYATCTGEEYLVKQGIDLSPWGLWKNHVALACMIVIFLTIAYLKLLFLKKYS

[5] = biological target: Liver microsome; assay: Drug metabolism in human liver microsomes assessed as formation of scutellarein-6,7-diglucuronide after 7 mins by HPLC/UV analysis; type: ADME; conditions: for Km / Vmax: human, microsomes, 7 min
[6] = system: Homo sapiens; assay: Drug metabolism in human assessed as retention time of parent compound at 40 mg, po up to 20 hrs by mass defect filter chromatogram analysis; type: ADME, organism-based; conditions: in vivo
[7] = biological target: T2, Solute carrier organic anion transporter family member 2B1; assay: Drug uptake assessed as OATP2B1 (unknown origin)-mediated drug transport expressed in HEK293 cells by LC-MS/MS analysis; type: ADME, cell-based
[8] = biological target: T4, UDP-glucuronosyltransferase 1A8 (Homo sapiens, UniProt Q9HAW9); assay: Drug metabolism assessed as human recombinant UGT1A8-mediated formation of scutellarein-6,7-diglucuronide after 25 mins by HPLC/UV analysis; type: ADME; conditions: recombinant enzyme
T4 sequence (Q9HAW9 whole entry): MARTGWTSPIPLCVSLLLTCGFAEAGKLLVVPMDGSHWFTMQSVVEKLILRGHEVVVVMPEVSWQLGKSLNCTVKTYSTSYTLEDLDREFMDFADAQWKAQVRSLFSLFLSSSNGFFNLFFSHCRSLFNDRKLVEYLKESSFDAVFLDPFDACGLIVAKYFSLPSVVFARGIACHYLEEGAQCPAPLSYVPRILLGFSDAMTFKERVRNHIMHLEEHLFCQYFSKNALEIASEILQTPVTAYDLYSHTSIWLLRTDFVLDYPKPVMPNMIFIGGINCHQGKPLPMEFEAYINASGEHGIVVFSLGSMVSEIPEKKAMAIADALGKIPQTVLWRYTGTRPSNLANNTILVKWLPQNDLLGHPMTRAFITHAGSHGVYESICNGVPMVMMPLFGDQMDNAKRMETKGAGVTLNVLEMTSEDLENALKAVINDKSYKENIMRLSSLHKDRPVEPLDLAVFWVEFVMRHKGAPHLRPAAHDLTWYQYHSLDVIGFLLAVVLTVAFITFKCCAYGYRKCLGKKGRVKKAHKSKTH

[9] = biological target: T4, UDP-glucuronosyltransferase 1A8; assay: Ratio of Vmax to Km for drug metabolism assessed as human recombinant UGT1A8-mediated formation of scutellarein-6,7-diglucuronide after 25 mins by HPLC/UV analysis; type: ADME; conditions: recombinant enzyme

Compound | Km at 7 min [1] | Ki [2] | Vmax ([2]; human, hek293, 7 min) | Vmax/Km [3] | Ratio [4] | Ki [5] | Km [5] | Vmax [5] | Retention_time [6] | Ki [7] | Vmax [8] | Vmax/Km [9]
O=C(O)[C@H]1O[C@@H](Oc2cc3oc(-c4ccc(O)cc4)cc(=O)c3c(O)c2O)[C@H](O)[C@@H](O)[C@@H]1O [SCUTELLARIN] | 43 µM | 25.9 µM | 113 pmol/min/mg | 18.5 µL/min/mg | 57.5 | 133 µM | 62.4 µM | 0.736 nmol/min/mg | 7.93 min | – | – | –
O=C(O)[C@H]1O[C@@H](Oc2c(O)cc3oc(-c4ccc(O)cc4)cc(=O)c3c2O)[C@H](O)[C@@H](O)[C@@H]1O | – | – | – | 110 µL/min/mg | 57.5 | 24 µM | 123 µM | 15.6 nmol/min/mg | – | 25.9 µM | 0.465 nmol/min/mg | 7.96 µL/min/mg
